Assays:
N-type Ca^2+ channel = target: T1, N-type Ca^2+ channel (Rattus norvegicus, UniProt Q02294); assay: N-type Ca2+ channel binding (antagonist radioligand); conditions: rat cerebral cortex, read-out: % Inhibition of Control Specific Binding, N-type Ca2+
T1 construct: Rat cerebral cortex; tissue Eurofins; host or cells: rat cerebral cortex
Experimental: Binding/functional studies were carried out commercially in Eurofins Laboratories (Poitiers, France) and Eurofins Panlabs Discovery Services Taiwan, Ltd. (New Taipei City, Taiwan) using testing procedures that were reported previously (for details see Table S2).
Table S2. Radioligand binding and functional assays. […]
N-type Ca2+ (antagonist radioligand) […]
TRPV1 (VR1) (h) (antagonist effect) […]
Assays were performed commercially in Eurofins Laboratories (Poitiers, France) or Eurofins Panlabs Discovery
Services Taiwan, Ltd. (New Taipei City, Taiwan). […]

[1] = system: fast voltage-gated sodium channels in rat prefrontal cortex pyramidal neurons; assay: Patch-clamp of fast sodium currents; type: cell-based; conditions: control = 1.0, n = 7
Experimental: The methodology of slice preparation, slice preincubation, and patch-clamp technique was the same as in our previous studies. Compound 53 was tested at a concentration of 10 µM.
Thus, we determined the influence of 53 on fast voltage-gated sodium channels in rat prefrontal cortex pyramidal neurons (at a concentration of 10 μM) using the patch-clamp technique. Maximal currents were evoked by rectangular voltage steps to 0 mV. […] The effect was not strong, but statistically significant (1.0 in the control and 0.83 ± 0.03 after the application of 53, p < 0.01). It was possible to obtain partial wash-out (0.86 ± 0.03 and the current were normalized to the control level, n = 7, Figure 5).
Figure 5 (A) The influence of compound 53 on sodium current is shown on an example neuron. The current was evoked once every ten seconds by a rectangular voltage-step. […] (B) Example of the sodium current recordings in the control (black trace), after the application of the tested compound (blue trace), and after wash-out (red trace). (C) The averaged normalized maximal current amplitudes in the control, in the presence of 53, and after wash-out. The data were analyzed with a nonparametric repeated measures ANOVA followed by Dunn’s post hoc test. * p < 0.01 (n = 7).

[2] = Neurotoxicity, SH-SY5Y viability (MTS); type: cell-based; conditions: human, SH-SY5Y neuroblastoma cells, 10 and 50 µM, read-out: SH-SY5Y cell viability, % of the control
Experimental: Moreover, the dose-dependent increase in the cells viability was found during the repeated experiment in lower concentrations (Figure 8B). […] Thus, the observed influence of this chemical group for neuronal cells is worth further detailed exploration.
Figure 8 The effect of 53 and the cytostatic drug doxorubicin (DX) on neuroblastoma SH-SY5Y cell line viability after 72 h of incubation at 37 °C, 5% CO2 in the concentration range 1–100 µM (A) and 0.001–1 µM (B). The data were analyzed with one-way ANOVA, followed by Bonferroni’s Comparison Test (Graph Pad Prism 8.0.1 software, San Diego, CA, USA)): *** p < 0.001, **** p < 0.0001 vs. negative control (DMSO 1% in growth media).

[3] = PAMPA permeability (Pre-coated PAMPA Plate System Gentest); type: in vitro ADME; conditions: read-out: Pe (permeability coefficient) ± SD

T1 sequence (Q02294 whole entry): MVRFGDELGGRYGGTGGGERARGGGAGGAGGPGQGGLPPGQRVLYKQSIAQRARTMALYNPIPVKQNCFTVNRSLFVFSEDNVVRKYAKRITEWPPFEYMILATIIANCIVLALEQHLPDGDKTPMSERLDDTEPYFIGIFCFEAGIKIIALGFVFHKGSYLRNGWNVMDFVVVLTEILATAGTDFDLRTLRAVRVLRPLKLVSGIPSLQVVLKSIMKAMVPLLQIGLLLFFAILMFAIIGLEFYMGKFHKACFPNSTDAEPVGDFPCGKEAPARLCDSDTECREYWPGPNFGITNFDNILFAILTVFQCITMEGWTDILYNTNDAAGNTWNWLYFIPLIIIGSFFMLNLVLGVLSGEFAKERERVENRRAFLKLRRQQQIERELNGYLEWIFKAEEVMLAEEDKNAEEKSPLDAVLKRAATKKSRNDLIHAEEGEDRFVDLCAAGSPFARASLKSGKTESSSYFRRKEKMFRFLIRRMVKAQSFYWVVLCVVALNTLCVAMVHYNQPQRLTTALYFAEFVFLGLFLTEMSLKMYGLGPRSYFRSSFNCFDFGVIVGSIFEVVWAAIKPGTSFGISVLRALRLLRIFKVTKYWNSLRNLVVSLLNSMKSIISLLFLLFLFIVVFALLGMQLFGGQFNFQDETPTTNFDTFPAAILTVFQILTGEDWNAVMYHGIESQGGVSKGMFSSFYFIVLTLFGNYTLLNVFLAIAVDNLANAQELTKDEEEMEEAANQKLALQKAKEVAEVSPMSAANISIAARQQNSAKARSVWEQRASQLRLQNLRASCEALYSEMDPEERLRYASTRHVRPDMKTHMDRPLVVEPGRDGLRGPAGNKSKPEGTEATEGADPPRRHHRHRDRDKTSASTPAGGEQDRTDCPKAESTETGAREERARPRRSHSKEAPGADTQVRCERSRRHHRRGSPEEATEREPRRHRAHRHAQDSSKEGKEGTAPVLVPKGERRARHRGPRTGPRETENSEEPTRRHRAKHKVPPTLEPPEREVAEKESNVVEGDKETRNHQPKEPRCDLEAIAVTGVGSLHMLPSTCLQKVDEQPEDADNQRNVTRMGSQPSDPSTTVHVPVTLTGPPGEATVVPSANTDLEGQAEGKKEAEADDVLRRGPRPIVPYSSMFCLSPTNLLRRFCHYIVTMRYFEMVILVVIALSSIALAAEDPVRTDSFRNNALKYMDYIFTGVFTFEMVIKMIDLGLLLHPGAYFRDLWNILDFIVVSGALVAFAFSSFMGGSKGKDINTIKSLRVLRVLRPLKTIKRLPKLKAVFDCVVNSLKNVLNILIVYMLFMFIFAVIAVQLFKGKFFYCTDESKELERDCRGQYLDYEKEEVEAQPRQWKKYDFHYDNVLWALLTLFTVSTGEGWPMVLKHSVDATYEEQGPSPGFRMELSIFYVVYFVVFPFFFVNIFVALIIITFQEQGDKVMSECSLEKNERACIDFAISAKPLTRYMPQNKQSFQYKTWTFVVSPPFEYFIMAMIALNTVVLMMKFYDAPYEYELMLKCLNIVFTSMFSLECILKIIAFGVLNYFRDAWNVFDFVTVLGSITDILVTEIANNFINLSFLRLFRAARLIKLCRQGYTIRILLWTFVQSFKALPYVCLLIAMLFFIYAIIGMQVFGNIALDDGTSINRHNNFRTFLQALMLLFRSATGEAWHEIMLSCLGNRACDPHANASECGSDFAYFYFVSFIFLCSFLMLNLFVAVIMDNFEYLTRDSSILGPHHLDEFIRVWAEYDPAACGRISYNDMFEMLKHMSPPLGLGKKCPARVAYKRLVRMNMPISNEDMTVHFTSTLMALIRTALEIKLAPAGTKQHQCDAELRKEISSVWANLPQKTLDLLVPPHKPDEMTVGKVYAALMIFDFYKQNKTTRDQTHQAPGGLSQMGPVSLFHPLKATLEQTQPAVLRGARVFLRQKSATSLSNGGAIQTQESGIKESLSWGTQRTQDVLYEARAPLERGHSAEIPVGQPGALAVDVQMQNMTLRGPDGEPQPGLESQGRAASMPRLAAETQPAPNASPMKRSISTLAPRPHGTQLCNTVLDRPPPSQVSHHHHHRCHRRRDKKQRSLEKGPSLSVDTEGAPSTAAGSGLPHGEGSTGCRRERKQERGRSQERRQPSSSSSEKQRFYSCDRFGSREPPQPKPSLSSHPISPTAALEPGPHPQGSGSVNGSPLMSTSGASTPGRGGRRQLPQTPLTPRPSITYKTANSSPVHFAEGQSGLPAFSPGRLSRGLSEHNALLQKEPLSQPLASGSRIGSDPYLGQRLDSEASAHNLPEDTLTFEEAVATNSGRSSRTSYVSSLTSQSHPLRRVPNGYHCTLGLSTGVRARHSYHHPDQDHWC
T1 sequence (P54287 whole entry partner): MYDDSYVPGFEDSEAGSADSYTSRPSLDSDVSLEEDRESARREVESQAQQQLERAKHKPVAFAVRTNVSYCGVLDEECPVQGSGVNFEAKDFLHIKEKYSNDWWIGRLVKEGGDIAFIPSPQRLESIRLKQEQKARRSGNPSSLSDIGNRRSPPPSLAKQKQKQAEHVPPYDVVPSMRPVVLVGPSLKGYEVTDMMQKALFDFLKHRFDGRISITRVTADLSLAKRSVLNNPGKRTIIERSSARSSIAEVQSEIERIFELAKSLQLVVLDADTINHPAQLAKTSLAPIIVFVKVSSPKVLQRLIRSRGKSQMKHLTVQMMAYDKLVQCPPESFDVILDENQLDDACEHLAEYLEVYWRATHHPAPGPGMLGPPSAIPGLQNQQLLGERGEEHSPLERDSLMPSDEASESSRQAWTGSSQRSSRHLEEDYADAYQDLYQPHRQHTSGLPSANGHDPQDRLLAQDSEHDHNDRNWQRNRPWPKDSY
T1 sequence (P54290 25-944 partner limits assumed): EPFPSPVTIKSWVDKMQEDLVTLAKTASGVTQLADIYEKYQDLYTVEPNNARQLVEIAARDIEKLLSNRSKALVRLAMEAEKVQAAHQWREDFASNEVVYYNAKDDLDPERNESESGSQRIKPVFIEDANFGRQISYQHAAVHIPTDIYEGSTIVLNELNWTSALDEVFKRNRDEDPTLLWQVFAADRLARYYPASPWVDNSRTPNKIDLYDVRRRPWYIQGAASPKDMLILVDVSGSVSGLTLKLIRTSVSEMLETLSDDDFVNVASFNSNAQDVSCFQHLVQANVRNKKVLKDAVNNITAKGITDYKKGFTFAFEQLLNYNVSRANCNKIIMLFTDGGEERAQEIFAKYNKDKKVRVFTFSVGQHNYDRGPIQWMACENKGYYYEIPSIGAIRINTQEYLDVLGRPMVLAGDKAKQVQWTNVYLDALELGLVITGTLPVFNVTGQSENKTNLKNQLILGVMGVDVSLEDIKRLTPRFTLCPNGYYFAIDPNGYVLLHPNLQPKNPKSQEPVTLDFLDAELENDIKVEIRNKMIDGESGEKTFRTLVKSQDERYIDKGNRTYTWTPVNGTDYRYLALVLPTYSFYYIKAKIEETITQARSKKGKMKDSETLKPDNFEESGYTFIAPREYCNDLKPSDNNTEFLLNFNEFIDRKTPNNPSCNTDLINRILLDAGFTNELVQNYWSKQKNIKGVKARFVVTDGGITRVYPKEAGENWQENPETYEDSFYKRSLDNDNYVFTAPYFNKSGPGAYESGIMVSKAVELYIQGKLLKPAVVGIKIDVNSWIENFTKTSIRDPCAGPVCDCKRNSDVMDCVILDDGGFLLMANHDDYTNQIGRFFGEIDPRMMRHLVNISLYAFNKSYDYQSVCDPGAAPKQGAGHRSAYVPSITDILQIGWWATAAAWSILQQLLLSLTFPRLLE
T1 sequence (P54290 945-1091 partner limits assumed): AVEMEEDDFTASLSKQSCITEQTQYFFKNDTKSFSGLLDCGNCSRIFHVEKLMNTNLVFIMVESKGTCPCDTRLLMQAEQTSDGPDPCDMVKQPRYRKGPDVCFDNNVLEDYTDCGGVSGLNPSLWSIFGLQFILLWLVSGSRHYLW

Row | inhibition at 100 µM (N-type Ca^2+ channel) [%] | Papp [3] [×10⁻⁶ cm/s] | SMILES | normalized maximal amplitude of sodium current after application ([1]; 10 μM) | normalized maximal amplitude of sodium current after wash-out ([1]; after 10 μM) | viability at 72 h [2] [%]
1 | 1.5 | – | CC(=O)NC(C(=O)N1CCN(c2cccc(C(F)(F)F)c2)CC1)c1ccccc1 (centres unmarked) [Compound 53, N-(2-oxo-1-phenyl-2-(4-(3-(trifluoromethyl)phenyl)piperazin-1-yl)ethyl)acetamide] | 0.83 ± 0.03 | 0.86 ± 0.03 | ≤ 140
2 | – | 9.15 ± 0.78 | CC(=O)NC(C(=O)N1CCN(c2cccc(OC(F)(F)F)c2)CC1)c1ccccc1 (centres unmarked) [Compound 60, N-(2-oxo-1-phenyl-2-(4-(3-(trifluoromethoxy)phenyl)piperazin-1-yl)ethyl)acetamide] | – | – | –

Reference: article PMC9221546, “New Phenylglycinamide Derivatives with Hybrid Structure as Candidates for New Broad-Spectrum Anticonvulsants” (Cells, 2022)
